GI50, IC50 and melting point data for twelve molecules are collected here from patent US8895744B2, “Alfa-carboline inhibitors of NPM-ALK, RET, and Bcr-Abl” (Universita' Degli Studi di Milano-Bicocca, priority 2008, dated 2014).

Data set [1] concerns the target T1, BaF3 cells transformed with the oncogenic fusion protein NPM/ALK (Homo sapiens, UniProt Q9UM73).
T1 construct: fused on or other part: P06748 (Nucleophosmin)
As to the kind of experiment: Tritiated thymidine uptake cell proliferation assay, BaF3 NPM/ALK. In kind it is cell-based. The following applies: 3[H]-thymidine uptake, 72 h; read-out: BaF NPM/ALK IC50. Put shortly:
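Cells were seeded at 10 000/well with serial inhibitor dilutions or DMSO vehicle and incubated 72 h at 37 °C, with ^3[H]-thymidine (1 μCi/well) added for the final 16 h. Incorporation was read by β scintillation counting. IC50 (μM) is the concentration giving a 50% decrease in uptake versus controls.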

Another data set addresses T2, Recombinant ALK kinase (Homo sapiens, UniProt Q9UM73).
T2 construct: made in house; host or cells: Sf9 insect cells (baculovirus)
Nature of the data set: ALK kinase inhibitory activity, ELISA-based in vitro kinase assay. In kind it is biochemical. To be noted: purified rALK, 0.3 mM ATP, read-out: ALK IC50. In a few lines: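 Sf9-expressed, purified recombinant ALK phosphorylated a plate-coated peptide substrate with 0.3 mM ATP, Mn2+/Mg2+, pH 7.5, 15 min at 30° C, after 10 min inhibitor preincubation. Phosphotyrosine was detected by anti-pTyr ELISA (TMB, A450); IC50 in μM is the concentration giving 50% inhibition relative to control.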
A general note: In an ELISA, binding on a coated surface is turned into a signal by an enzyme label.

The target of data set [2] is T3, Recombinant Abl T315I protein (Homo sapiens, UniProt P00519, T315I).
T3 construct: made in house; host or cells: Sf9 cells (baculovirus)
Nature of the data set: Abl T315I mutant kinase inhibitory activity, ELISA-based in vitro kinase assay. To be noted: purified Abl T315I, 0.3 mM ATP. In kind it is biochemical. In a few lines:
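His-tagged human Abl T315I from Sf9 cells, preincubated 10 min at room temperature with inhibitor, then reacted on peptide-coated plates with 0.3 mM ATP, 1 mM MnCl2, 5 mM MgCl2 in 50 mM Tris pH 7.5. Phosphotyrosine detected by anti-pTyr/HRP ELISA at 450 nm; IC50 as 50% inhibition vs control.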

Data set [3] has as its system parent untransformed BaF3 cells. As to the kind of experiment: Tritiated thymidine uptake cell proliferation assay, parental BaF3 (control). Format: cell-based. The following applies: Mus musculus, 3[H]-thymidine uptake, 72 h, medium with IL-3, read-out: BaF parental IC50. In a few lines:
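Control lines were parental BaF3 in IL-3-supplemented medium and ALK-, Abl- or RET-negative U937, seeded at 10 000 cells/well with serial inhibitor dilutions for 72 h at 37 °C. ³H-thymidine (1 μCi/well) was added for the final 16 h; IC50 (μM) is the concentration halving uptake versus DMSO.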

Data set [4] has as its system NPM/ALK positive SUDHL-1 cells. As to the kind of experiment: Tritiated thymidine uptake cell proliferation assay, SUDHL-1. Format: cell-based. The following applies: 3[H]-thymidine uptake, 72 h. The procedure: Inhibition of the proliferation of NPM/ALK positive cells
(§1) Method: Tritiated Thymidine Uptake Cell Proliferation Assay
(§2) The following procedure was used with parent untransformed BaF3 cells, BaF3 cells transformed with the oncogenic fusion protein NPM/ALK, NPM/ALK positive SUDHL-1 cells, ALK-negative U937 cells, NPM/ALK positive KARPAS-299 cells. The parent untransformed BaF3 cells and Alk-negative U937 cells are used as controls. Cells were seeded in U-bottomed 96-well plates at 10 000 cells/well in a volume of 100 μL in supplemented medium. In the case of the parent untransformed BaF3 cells, the medium was supplemented with IL-3. Serial dilutions of inhibitors were added to the appropriate wells and volumes adjusted to 200 μL. Controls were treated with the equivalent volume of vehicle, DMSO, alone. Plates were incubated at 37° C. for 72 h. ^3[H]-thymidine (1 μCi/well) was added for the last 16 h of incubation. Cells were harvested on to paper filters and ^3[H]-thymidine incorporation was measured using a β scintillation counter (1430 MicroBeta, Wallac, Turku, Finland). The 50% inhibitory concentration (IC50) was defined as the concentration of inhibitor, expressed in micromolar, that gave a 50% decrease in ^3[H]-thymidine uptake compared with controls.

In the next data set the target is T4, Recombinant Ret protein (Homo sapiens, UniProt P07949).
T4 construct: made in house; host or cells: Sf9 cells (baculovirus)
T4 sequence (P07949 29-1114): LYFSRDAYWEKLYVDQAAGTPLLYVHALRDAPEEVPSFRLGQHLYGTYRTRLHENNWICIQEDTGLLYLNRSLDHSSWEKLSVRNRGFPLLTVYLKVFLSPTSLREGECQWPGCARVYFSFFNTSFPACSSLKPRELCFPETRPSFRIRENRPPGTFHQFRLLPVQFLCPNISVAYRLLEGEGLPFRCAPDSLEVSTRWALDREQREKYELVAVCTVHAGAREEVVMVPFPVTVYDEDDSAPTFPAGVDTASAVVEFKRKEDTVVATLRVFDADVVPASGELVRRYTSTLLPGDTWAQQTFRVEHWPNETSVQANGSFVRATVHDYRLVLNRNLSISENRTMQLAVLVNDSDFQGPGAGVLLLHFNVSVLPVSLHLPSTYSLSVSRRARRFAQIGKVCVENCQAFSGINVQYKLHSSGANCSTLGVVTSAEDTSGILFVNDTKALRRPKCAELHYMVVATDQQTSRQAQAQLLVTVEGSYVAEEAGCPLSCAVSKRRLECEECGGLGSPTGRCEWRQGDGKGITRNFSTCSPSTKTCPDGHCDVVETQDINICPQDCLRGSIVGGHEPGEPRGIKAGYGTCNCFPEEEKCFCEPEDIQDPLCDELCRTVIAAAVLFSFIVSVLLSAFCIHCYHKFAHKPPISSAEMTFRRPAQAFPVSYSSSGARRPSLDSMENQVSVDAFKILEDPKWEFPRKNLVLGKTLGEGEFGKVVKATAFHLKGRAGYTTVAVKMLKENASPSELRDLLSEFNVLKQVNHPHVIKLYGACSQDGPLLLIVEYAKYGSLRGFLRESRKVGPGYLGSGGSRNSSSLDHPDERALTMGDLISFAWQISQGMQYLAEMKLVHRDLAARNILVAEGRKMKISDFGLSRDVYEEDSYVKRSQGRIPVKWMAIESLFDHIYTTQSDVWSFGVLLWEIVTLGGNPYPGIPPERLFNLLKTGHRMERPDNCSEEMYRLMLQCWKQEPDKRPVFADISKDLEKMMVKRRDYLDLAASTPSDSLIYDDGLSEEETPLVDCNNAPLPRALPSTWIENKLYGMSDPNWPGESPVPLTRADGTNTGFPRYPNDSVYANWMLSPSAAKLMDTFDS
Nature of the data set: RET kinase inhibitory activity, ELISA-based in vitro kinase assay. The following applies: purified Ret, 0.3 mM ATP. Format: biochemical. As for the experimental part:
Recombinant ALK kinase was expressed in Sf9 insect cells using the pBlueBacHis2C baculovirus vector system and purified using an anion exchange Fast Flow Q-sepharose column (Amersham-Pharmacia Biotech) followed by HiTrap™-nickel affinity column (Amersham-Pharmacia Biotech). Purified ALK protein was used to screen inhibitors in the ELISA-based kinase assay. A Nunc Immuno 96 well plate was incubated overnight at 37° C. with coating solution (125 μL/well) containing ALK peptide substrate ([…]) (SEQ ID NO: 1) at various concentrations in PBS. Wells were then washed with 200 μL of wash buffer (PBS-Tween 0.05%) and left to dry for at least 2 h at 37° C. The kinase reaction was performed in the presence of 50 mM Tris pH 7.5, 5 mM MnCl2, 5 mM MgCl2, 0.3 mM ATP and purified rALK in a total volume of 100 μL/well at 30° C. for 15 min. For inhibitor testing the reaction mix was preincubated with the inhibitor or solvent control for 10 min at room temperature before transferring to the ELISA plate. After the reaction wells were washed 5 times with 200 μL of wash buffer. Phosphorylated peptide was detected using 100 μL/well of a mouse monoclonal anti-phosphotyrosine antibody (clone 4G10 Upstate Biotech Ltd) diluted 1:2000 in PBS+4% BSA. After 30 min incubation at room temperature the antibody was removed and wells were washed as described above. 100 μL of a secondary antibody (anti-mouse IgG, Horseradish Peroxidase linked whole antibody, Amersham Pharmacia Biotech) diluted 1:1000 in PBS+4% BSA was added to each well and the plate was incubated again for 30 min at room temperature before washing as above. The plate was developed using 100 μL/well TMB Substrate Solution (Endogen) and the reaction was stopped by adding an equiv.ual volume of H2SO4 0.36 M. Finally, the absorbance was read at 450 nm using an Ultrospec® 300 spectrophotometer (Amersham-Pharmacia Biotech). The concentration of the test solution showing 50% inhibition as compared with the control was expressed as IC50 (μM).
38. RET Kinase Inhibitory Activity
Method: ELISA-Based In Vitro Kinase Assay
Recombinant Ret protein was expressed in Sf9 cells using the pBlueBacHis2C baculovirus expression vector. Ret was purified using an anion exchange Fast Flow Q-sepharose column (Amersham-Pharmacia Biotech) followed by HiTrap™-nickel affinity column (Amersham-Pharmacia Biotech). Purified Ret was used in the ELISA-based kinase assay to screen inhibitors as described above. The kinase reaction was performed in the presence of 50 mM Tris pH 7.5, 1 mM MnCl2, 5 mM MgCl2, 0.3 mM ATP, peptide substrate ([…]) (SEQ ID NO: 1) and purified Ret. The concentration of the test solution showing 50% inhibition as compared with the control was expressed as IC50 (μM).

For the next data set, the system named is ALK-negative U937 cells. As to the kind of experiment: Tritiated thymidine uptake cell proliferation assay, U937 (control). In kind it is cell-based. The following applies: Homo sapiens, U-937; 3[H]-thymidine uptake, 72 h. The procedure:
as §1
as §2, with “with controls. […]” for “with controls.”
as §2, with “RET-PTC2, or RET-negative 11937” for “NPM/ALK, NPM/ALK positive SUDHL-1 cells, ALK-negative U937 cells, NPM/ALK positive KARPAS-299”, “RET-negative” for “Alk-negative”

T1 sequence (Q9UM73 whole entry, change not shown, the tested form may be a part): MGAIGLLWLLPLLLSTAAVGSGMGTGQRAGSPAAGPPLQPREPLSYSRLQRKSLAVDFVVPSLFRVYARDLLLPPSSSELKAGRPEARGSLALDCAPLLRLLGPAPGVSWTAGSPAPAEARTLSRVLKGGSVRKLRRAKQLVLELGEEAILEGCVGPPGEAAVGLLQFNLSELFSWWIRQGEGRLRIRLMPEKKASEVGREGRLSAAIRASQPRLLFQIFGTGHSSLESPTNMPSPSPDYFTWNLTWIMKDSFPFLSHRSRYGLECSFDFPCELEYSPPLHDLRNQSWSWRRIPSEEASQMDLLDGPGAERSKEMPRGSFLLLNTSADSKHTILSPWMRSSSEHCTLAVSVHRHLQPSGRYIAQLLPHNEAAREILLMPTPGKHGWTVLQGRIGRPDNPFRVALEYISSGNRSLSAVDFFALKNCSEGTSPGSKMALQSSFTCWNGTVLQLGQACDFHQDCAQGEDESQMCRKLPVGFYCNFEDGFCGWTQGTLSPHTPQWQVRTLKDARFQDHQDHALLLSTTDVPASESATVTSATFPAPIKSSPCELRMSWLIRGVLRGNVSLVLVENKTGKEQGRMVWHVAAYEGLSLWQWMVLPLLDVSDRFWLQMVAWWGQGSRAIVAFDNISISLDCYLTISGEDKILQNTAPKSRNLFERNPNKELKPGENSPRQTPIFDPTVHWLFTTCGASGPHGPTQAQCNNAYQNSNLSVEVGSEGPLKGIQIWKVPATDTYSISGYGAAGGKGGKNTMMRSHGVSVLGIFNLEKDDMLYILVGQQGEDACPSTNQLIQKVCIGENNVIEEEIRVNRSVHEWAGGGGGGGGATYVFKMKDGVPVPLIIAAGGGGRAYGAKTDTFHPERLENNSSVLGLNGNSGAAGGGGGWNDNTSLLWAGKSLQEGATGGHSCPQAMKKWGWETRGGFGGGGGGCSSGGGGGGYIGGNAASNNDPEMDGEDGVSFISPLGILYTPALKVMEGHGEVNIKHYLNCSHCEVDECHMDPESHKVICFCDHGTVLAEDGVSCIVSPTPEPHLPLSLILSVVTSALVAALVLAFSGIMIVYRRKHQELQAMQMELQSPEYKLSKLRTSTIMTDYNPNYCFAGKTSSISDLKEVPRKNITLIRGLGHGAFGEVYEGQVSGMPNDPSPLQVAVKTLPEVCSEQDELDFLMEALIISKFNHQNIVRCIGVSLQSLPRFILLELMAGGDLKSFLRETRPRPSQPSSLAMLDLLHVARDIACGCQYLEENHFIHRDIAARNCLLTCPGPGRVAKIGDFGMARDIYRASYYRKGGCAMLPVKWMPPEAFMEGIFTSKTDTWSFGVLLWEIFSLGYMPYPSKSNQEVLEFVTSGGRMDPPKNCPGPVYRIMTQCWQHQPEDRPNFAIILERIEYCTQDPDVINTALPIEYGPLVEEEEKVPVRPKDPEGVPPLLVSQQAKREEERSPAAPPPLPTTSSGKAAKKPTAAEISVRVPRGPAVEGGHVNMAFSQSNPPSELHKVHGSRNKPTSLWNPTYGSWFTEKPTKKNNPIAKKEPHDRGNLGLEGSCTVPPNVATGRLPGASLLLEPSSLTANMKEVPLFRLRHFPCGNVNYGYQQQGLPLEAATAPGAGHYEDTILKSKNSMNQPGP
T2 sequence (Q9UM73 19-1620): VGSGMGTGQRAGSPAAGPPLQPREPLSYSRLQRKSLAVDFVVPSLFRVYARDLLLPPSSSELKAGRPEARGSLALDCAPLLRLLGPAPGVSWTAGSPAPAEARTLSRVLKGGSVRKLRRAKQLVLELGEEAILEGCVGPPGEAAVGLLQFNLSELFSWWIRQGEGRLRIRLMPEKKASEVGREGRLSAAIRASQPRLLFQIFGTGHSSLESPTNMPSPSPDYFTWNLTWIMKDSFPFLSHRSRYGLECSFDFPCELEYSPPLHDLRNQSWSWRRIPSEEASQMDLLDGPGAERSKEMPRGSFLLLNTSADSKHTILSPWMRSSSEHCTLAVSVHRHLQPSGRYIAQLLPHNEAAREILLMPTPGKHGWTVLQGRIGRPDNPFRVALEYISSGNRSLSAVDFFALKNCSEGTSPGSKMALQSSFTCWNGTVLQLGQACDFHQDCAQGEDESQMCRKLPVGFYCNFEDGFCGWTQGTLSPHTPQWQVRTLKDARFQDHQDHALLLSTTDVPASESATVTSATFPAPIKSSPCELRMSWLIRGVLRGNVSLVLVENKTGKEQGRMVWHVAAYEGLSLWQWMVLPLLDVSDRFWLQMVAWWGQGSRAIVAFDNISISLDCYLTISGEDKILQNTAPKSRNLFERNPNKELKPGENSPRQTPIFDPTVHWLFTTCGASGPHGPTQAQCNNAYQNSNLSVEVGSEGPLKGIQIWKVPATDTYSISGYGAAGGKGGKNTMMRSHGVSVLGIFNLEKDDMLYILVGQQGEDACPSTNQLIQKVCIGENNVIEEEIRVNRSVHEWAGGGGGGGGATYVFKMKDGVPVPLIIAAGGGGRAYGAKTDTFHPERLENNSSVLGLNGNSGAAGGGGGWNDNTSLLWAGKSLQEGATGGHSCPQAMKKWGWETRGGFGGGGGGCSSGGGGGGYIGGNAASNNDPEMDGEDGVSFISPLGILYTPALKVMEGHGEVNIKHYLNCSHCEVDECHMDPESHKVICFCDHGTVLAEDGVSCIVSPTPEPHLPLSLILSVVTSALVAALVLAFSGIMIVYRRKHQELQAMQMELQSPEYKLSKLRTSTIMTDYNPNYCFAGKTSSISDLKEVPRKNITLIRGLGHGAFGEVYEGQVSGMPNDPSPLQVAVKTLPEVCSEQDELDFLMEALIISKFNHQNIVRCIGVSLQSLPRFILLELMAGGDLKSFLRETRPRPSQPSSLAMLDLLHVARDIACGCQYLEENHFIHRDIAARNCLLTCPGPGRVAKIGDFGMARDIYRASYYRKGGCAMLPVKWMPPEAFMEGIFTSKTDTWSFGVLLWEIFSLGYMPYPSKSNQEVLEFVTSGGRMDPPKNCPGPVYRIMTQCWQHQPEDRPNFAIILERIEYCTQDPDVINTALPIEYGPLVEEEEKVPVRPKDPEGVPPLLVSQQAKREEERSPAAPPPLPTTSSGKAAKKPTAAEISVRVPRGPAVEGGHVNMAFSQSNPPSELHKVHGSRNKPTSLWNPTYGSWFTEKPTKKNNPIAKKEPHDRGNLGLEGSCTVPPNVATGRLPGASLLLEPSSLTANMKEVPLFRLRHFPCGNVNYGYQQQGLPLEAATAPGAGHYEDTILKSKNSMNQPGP

As a reminder, the IC50 is the concentration that gives 50% inhibition. In the case of `O=C(CSc1ccccc1)c1ccc2[nH]c3ncc(Cl)cc3c2c1` [R275, 1-(3-Chloro-9H-pyrido[2,3-b]indol-6-yl)-2-phenylsulfanylethanone], the GI50 in data set [1] came to 8 µM. Moreover, the IC50 on Recombinant ALK kinase was 20 ± 0.6 µM; in data set [2], greater than 100 µM; in data set [3], 2 µM; in data set [4], greater than 25 µM; at Recombinant Ret protein, 27 µM.
As usually defined, the melting point is the temperature of the solid-liquid transition. The molecule `COc1ccc(-c2cnc3[nH]c4ccccc4c3c2)cc1` [R278, 3-(4-methoxyphenyl)-9H-pyrido[2,3-b]indole] gave a melting point greater than 220 °C. Further, the GI50 in data set [1] is greater than 50 µM. Moreover, at Recombinant ALK kinase, the IC50 stood at 1.2 ± 0.2 µM. Besides, in data set [2], the concentration for half-maximal inhibition (IC50) stood at 23 µM. For the same molecule, the 50% inhibitory concentration (IC50) in data set [3] was greater than 50 µM. Moreover, the half-maximal inhibitory concentration (IC50) on Recombinant Ret protein stood at 1 µM.
With `C(=C\c1cnc2[nH]c3ccccc3c2c1)/c1ccccc1` [R281, 3-(2′-phenylethenyl)-9H-pyrido[2,3-b]indole], the GI50 in data set [1] is greater than 100 µM. Also, the IC50 is 0.5 ± 0.3 µM at Recombinant ALK kinase; 1.8 µM in data set [2]; greater than 100 µM in data set [3]; greater than 100 µM in data set [4]; 1.1 µM on Recombinant Ret protein.
Regarding `COc1ccc(-c2ccc3c(n2)[nH]c2ccccc23)cc1` [R299, 2-(4-methoxyphenyl)-9H-pyrido[2,3-b]indole], the GI50 in data set [1] was greater than 100 µM. The IC50 on Recombinant ALK kinase was 2.1 ± 0.5 µM; in data set [2] it was greater than 100 µM; in data set [3], greater than 100 µM; in data set [4] it was 59 µM; at Recombinant Ret protein, 4.1 µM.
With `C(=C\c1ccc2c(n1)[nH]c1ccccc12)/c1ccccc1` [R300, 2-(2′-phenylethenyl)-9H-pyrido[2,3-b]indole], the GI50 in data set [1] was 80 µM. The IC50 was greater than 100 µM in data set [2], greater than 100 µM in data set [3], greater than 100 µM in data set [4] and 4.8 µM on Recombinant Ret protein.
For `O=[N+]([O-])c1ccccc1Nc1ccnc2[nH]c3ccccc3c12` [R323, N-(2-nitrophenyl)-9H-pyrido[2,3-b]indol-4-amine], the GI50 in data set [1] amounted to 0.21 ± 0.01 µM. Besides, the IC50 was 23 ± 12 µM on Recombinant ALK kinase, greater than 100 µM in data set [3], greater than 100 µM in data set [4] and 13000 nM in the data set with ALK-negative U937 cells.
Regarding `O=[N+]([O-])c1ccccc1Nc1ccc2c(n1)[nH]c1ccc(/C=C/c3ccccc3)cc12` [R332, N-(2-nitrophenyl)-6-(2′-phenylethenyl)-9H-pyrido[2,3-b]indol-2-amine], in data set [1], the GI50 was 3 ± 0.8 µM. Besides, the IC50 at Recombinant ALK kinase stood at 13 ± 2 µM; in data set [3] it was 20 ± 1 µM; in data set [4] it was 3.6 µM; in the data set on ALK-negative U937 cells, 1900 nM.
On to `CCN(CC)CCCOc1ccc(-c2ccc3[nH]c4ncc(Cl)cc4c3c2)cc1` [R337, 3-(4-(3-chloro-9H-pyrido[2,3-b]indol-6-yl)phenoxy)-N,N-diethylpropan-1-amine], for which, in data set [1], the GI50 turned out to be 2.5 µM. In addition, the IC50 at Recombinant ALK kinase was determined as 31 ± 9 µM; in data set [3], 2.6 µM; in data set [4] it was 2.4 µM; in the data set on ALK-negative U937 cells it was 1100 nM.
For `CCN(CC)CCCOc1ccc(-c2ccc3[nH]c4ncc(/C=C/c5ccccc5)cc4c3c2)cc1` [R338, N,N-diethyl-3-(4-(3-(2′-phenylethenyl)-9H-pyrido[2,3-b]indol-6-yl)phenoxy)propan-1-amine], in data set [1], the GI50 is 0.5 µM. Also, the IC50 came to 0.4 µM in data set [3], 0.4 µM in data set [4] and 400 nM in the data set with ALK-negative U937 cells.
Regarding `CCN(CC)CCCOc1ccc(-c2ccc3[nH]c4ncc(C=Cc5ccccc5)cc4c3c2)cc1` [R340], the GI50 in data set [1] was found to be 1.2 µM. The IC50 at Recombinant ALK kinase amounted to 7 ± 1.5 µM; in data set [3], 1 µM; in data set [4], 0.7 µM; in the data set with ALK-negative U937 cells, 500 nM.
Regarding `CCCC#Cc1ccc2c(n1)[nH]c1ccccc12` [R341, 2-(pent-1-ynyl)-9H-pyrido[2,3-b]indole], the GI50 in data set [1] turned out to be 74 µM. For the same molecule, the half-inhibitory concentration (IC50) on Recombinant ALK kinase amounted to 11 ± 0.1 µM; in data set [3], 70 µM; in data set [4] it was 48 µM; in the data set with ALK-negative U937 cells, 17000 nM.
In the case of `C(#Cc1ccc2c(n1)[nH]c1ccccc12)c1ccccc1` [R342, 2-(phenylethynyl)-9H-pyrido[2,3-b]indole], in data set [1], the GI50 was greater than 180 µM. For the same molecule, the figures for the 50% inhibitory concentration (IC50) (in data set [3]; in data set [4]; with ALK-negative U937 cells) were greater than 100 µM, 21 µM and 33000 nM, respectively.
